Among the test systems are UACC-257 melanoma; MDA-N; NCI-H522 lung; LOX IMVI melanoma; DU-145 prostate; HL-60(TB) leukemia; HT29 colon; SK-MEL-5 melanoma; SNB-19 CNS; MDA-MB-435; EKVX NSCLC; ACHN renal; CAKI-1 renal; M14 melanoma; OVCAR-3 ovarian.
What all share (assay): growth of human tumour cells (NCI), 48 h

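Growth conditions: 96-well plates. Treatment: test compound, 48 hours, 5 concentrations. Analysis: linear interpolation between bracketing concentrations; unreached endpoints set to highest concentration. GI50 = concentration required for 50% inhibition of growth. Definition used: TGI = concentration required for complete inhibition of growth.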

For `CNC(=O)N(CCC#N)CCCN(C(=O)NC)c1ccccc1`, the TGI in the test with UACC-257 melanoma, with MDA-N, in the test with NCI-H522 lung, in the test with LOX IMVI melanoma, in the test with DU-145 prostate and with HL-60(TB) leukemia was over 100 µM in each case. Moreover, the TGI in the test on HT29 colon, in the test on SK-MEL-5 melanoma, in the test on SNB-19 CNS, in the test with MDA-MB-435, in the test on EKVX NSCLC and in the test with ACHN renal was over 100 µM in each case. Besides, the TGI in the test on CAKI-1 renal, in the test on M14 melanoma and with OVCAR-3 ovarian was over 100 µM in each case.

`CC(SC(=S)N1CCOCC1)C(=O)Nc1nnc(-c2ccccc2)o1` (stereo unspecified): the TGI in the test with UACC-257 melanoma was over 100 µM; with MDA-N, over 100 µM; in the test on NCI-H522 lung, over 100 µM; in the test with LOX IMVI melanoma, over 100 µM; in the test with DU-145 prostate it was over 100 µM; in the test on HL-60(TB) leukemia, 20.5 µM. In addition, the TGI in the test with HT29 colon, in the test on SK-MEL-5 melanoma, in the test with SNB-19 CNS, with MDA-MB-435, with EKVX NSCLC and with ACHN renal was over 100 µM in each case. Further, the TGI with CAKI-1 renal, in the test on M14 melanoma and in the test with OVCAR-3 ovarian was over 100 µM in each case.

`COc1cc2cccc(N)c2cc1OC`: the TGI in the test on UACC-257 melanoma, with MDA-N, in the test with NCI-H522 lung, in the test on LOX IMVI melanoma, in the test with DU-145 prostate and in the test with HL-60(TB) leukemia was over 100 µM each time. Moreover, the TGI in the test on HT29 colon, in the test on SK-MEL-5 melanoma, in the test with SNB-19 CNS, with MDA-MB-435, in the test on EKVX NSCLC and in the test with ACHN renal was over 100 µM throughout. Moreover, the TGI with CAKI-1 renal, in the test on M14 melanoma and with OVCAR-3 ovarian was over 100 µM throughout.

As to `NCCN1C(=O)CN=C(c2ccc(Cl)cc2)c2cc(Cl)ccc21`, the TGI in the test with UACC-257 melanoma turned out to be 34.9 µM; in the test with MDA-N, 31.4 µM; in the test with NCI-H522 lung, 37.3 µM; in the test with LOX IMVI melanoma it was 32.4 µM; in the test with DU-145 prostate, 34.8 µM; with HL-60(TB) leukemia it was 37.7 µM. Further, the TGI with HT29 colon worked out at 36 µM; with SK-MEL-5 melanoma, 31.4 µM; in the test with SNB-19 CNS, 45.6 µM; in the test with MDA-MB-435, 28.3 µM; with EKVX NSCLC, 84.5 µM; in the test with ACHN renal, 33 µM. In addition, the TGI in the test with CAKI-1 renal turned out to be 32 µM; in the test with M14 melanoma it was 30.3 µM; in the test with OVCAR-3 ovarian, 29.3 µM.

In the case of `COc1ccc(OCc2ccc3nc(-c4ccccc4)c(Cl)nc3c2)cc1`, the TGI in the test on UACC-257 melanoma is over 100 µM; in the test with MDA-N, over 100 µM; in the test on NCI-H522 lung, 40.5 µM; in the test with LOX IMVI melanoma it was over 100 µM; in the test with DU-145 prostate, over 100 µM; in the test on HL-60(TB) leukemia it was 45.9 µM. The TGI with HT29 colon is over 100 µM; in the test on SK-MEL-5 melanoma, 25.8 µM; with SNB-19 CNS, 68.2 µM; in the test on MDA-MB-435, over 100 µM; in the test with EKVX NSCLC, over 100 µM; in the test on ACHN renal, over 100 µM. The TGI is 51.4 µM in the test with CAKI-1 renal, over 100 µM in the test with M14 melanoma and over 100 µM in the test on OVCAR-3 ovarian.

As for `Cc1ccc(-c2cc(C(F)(F)F)nn2-c2ccc(S(N)(=O)=O)cc2)cc1`, the TGI was over 58.3 µM in the test on UACC-257 melanoma; 30.9 µM with MDA-N; 77.6 µM in the test with NCI-H522 lung; 31.7 µM with LOX IMVI melanoma; over 57.7 µM in the test on DU-145 prostate; 42.7 µM in the test with HL-60(TB) leukemia. The TGI was over 55.5 µM with HT29 colon; 32.6 µM in the test with SK-MEL-5 melanoma; over 56.7 µM in the test with SNB-19 CNS; over 56 µM in the test on MDA-MB-435; 54.4 µM with EKVX NSCLC; over 56 µM in the test on ACHN renal. The values for the TGI in the test on CAKI-1 renal, in the test on M14 melanoma and in the test on OVCAR-3 ovarian were over 60.1 µM, over 60 µM and 32 µM, respectively. Besides, the GI50 in the test with NCI-H522 lung is 19.9 µM.

Turning to `CC1=CC[C@@]2(CO)[C@@H]([C@@H]1C)[C@H]1CC[C@@H]3[C@@]4(C)CC[C@H](O)C(C)(C)[C@@H]4CC[C@@]3(C)[C@]1(C)C[C@@H]2O`, the TGI in the test on UACC-257 melanoma is over 100 µM; in the test with MDA-N it was over 100 µM; in the test with NCI-H522 lung, 42.8 µM; in the test with LOX IMVI melanoma, 45.2 µM; in the test on DU-145 prostate, over 100 µM; with HL-60(TB) leukemia it was over 100 µM. Further, the TGI in the test on HT29 colon is over 100 µM; in the test with SK-MEL-5 melanoma it was 42.1 µM; in the test with SNB-19 CNS, over 100 µM; with MDA-MB-435 it was over 100 µM; in the test on EKVX NSCLC, over 100 µM; in the test on ACHN renal, 91.7 µM. The TGI in the test with CAKI-1 renal, with M14 melanoma and with OVCAR-3 ovarian was over 100 µM each time.

For the compound `O=P1(Oc2ccccc2)N(CCCl)CCN1c1ccccc1` (stereo unspecified), the TGI in the test on UACC-257 melanoma, in the test with MDA-N, in the test on NCI-H522 lung, in the test with LOX IMVI melanoma, in the test with DU-145 prostate and with HL-60(TB) leukemia was over 100 µM throughout. For the same compound, the TGI with HT29 colon, in the test on SK-MEL-5 melanoma, in the test on SNB-19 CNS, with MDA-MB-435, in the test with EKVX NSCLC and in the test with ACHN renal was over 100 µM in each case. For the same compound, the TGI with CAKI-1 renal, with M14 melanoma and with OVCAR-3 ovarian was over 100 µM each time.

With `C=C[C@@H]1C[C@]2(C(=O)OC)Cc3nc4ccccc4nc3CC(C(=O)OC)=C2O1`, the TGI in the test with UACC-257 melanoma, with MDA-N, in the test with NCI-H522 lung, in the test on LOX IMVI melanoma, in the test on DU-145 prostate and in the test on HL-60(TB) leukemia was over 100 µM in each case. Besides, the TGI with HT29 colon, in the test with SK-MEL-5 melanoma, with SNB-19 CNS, in the test on MDA-MB-435, in the test on EKVX NSCLC and in the test on ACHN renal was over 100 µM each time. Further, the TGI with CAKI-1 renal, in the test on M14 melanoma and in the test on OVCAR-3 ovarian was over 100 µM each time.

For the origin of these results see PubChem BioAssay (NCI).
